Assay results from patent US8946275B2, “Treatment of cancer using hypoxia activated prodrugs” (Threshold Pharmaceuticals, Inc., priority 2008, dated 2015).

What was measured:
H460 NSCLC [1] = assay: H460 ectopic tumor model, TH-302 with carboplatin; assay type: in vivo, nude mice; settings: Carboplatin 20 mg/kg IV Q7Dx2; TH-302 100 mg/kg IP Q7Dx2; alone or combined
Procedure: (§1) Anti-tumor activity was evaluated by tumor growth inhibition (TGI) and tumor growth delay (TGD). Body weight change, gross and microscopic assessment of tissue changes, and hematologic assays served for toxicity assessment.
(§2) Testing in these models was conducted generally as follows. 1×10^6 H460 human non-small cell lung cancer or HT1080 human fibrosarcoma cells were implanted in the subcutaneous space of the right flank to obtain ectopic xenograft models. For the orthotopic pancreatic model, red-fluorescent protein (RFP) expressing MIA PaCa2 tumors were surgically implanted on the surface of the pancreas. The prostate metastatic model was created by the intraventricular injection of 3×10^6 luciferase-expressing PC-3 cells. […] API grade of TH-302 was used in all experiments while docetaxel, gemcitabine, doxorubicin and pemetrexed were purchased from commercial sources.
Inhibition of tumor growth after administration of TH-302 and carboplatin was greater than for either drug individually in an ectopic tumor model using H460 cells.

[2] = system: H460 human non-small cell lung cancer; assay: H460 ectopic xenograft, TH-302/docetaxel dosing schedules; assay type: in vivo, nude mice; settings: single agent, TH-302 100 mg/kg ip once or Docetaxol 10 mg/kg iv once
Procedure: (§3) Anti-tumor activity was evaluated by tumor growth delay (TGD) and tumor growth inhibition (TGI). Body weight change, gross and microscopic assessment of tissue changes, and hematologic assays served for toxicity assessment. Testing in these models was conducted generally as follows. 1×10^6 (H460 human non-small cell lung cancer or HT1080 human fibrosarcoma cells) or 3×10^6 (PC-3 human prostate cancer cells) were implanted in the subcutaneous space of the right flank to obtain ectopic xenograft models. Randomization and dosing was initiated when tumors reached a certain size (100-150 mm^3). API grade of TH-302 was used in all experiments while docetaxel, gemcitabine, cisplatin, pemetrexed, and doxorubicin were purchased from commercial sources.
The H460 cells were prepared in 30% Matrigel and 70%. RPMI1640. Mice were anesthetized by isoflurane and were implanted subcutaneously with 1×10^6 cells (in 200 μl) at the flank position. We selected 110 mice bearing similar size tumors (˜100 mm^3) for the study. Mice bearing similar tumor size were randomly assigned into different groups. Treatment started on day 1 (7 days after tumor implantation) except as noted. […] Animals were observed daily and tumor measurements and body weights recorded twice weekly.

[3] = system: PC-3 human prostate cancer cells; assay: PC-3 ectopic xenograft, TH-302/docetaxel dosing schedules; assay type: in vivo, nude mice; settings: single agent, TH-302 150 mg/kg ip once or Docetaxol 10 mg/kg iv once
Calu6 NSCLC = assay: Calu-6 ectopic tumor model, TH-302 with doxorubicin; assay type: in vivo, nude mice; settings: Dox 4 mg/kg IV Q7Dx2; TH-302 50 mg/kg IP QDx5/wkx2wks; alone or combined
[4] = system: HT1080 human fibrosarcoma cells; assay: HT1080 ectopic xenograft, TH-302/doxorubicin dosing schedules; assay type: in vivo, nude mice; settings: single agent, TH-302 100 mg/kg ip 1/wkx2wks or Dox 4 mg/kg iv 1/wkx2wks
Procedure: as §3
(§4) The H460 cells were prepared in 30% Matrigel and 70%. RPMI1640. Mice were anesthetized by isoflurane and were implanted subcutaneously with 1×10^6 cells (in 200 μl) at the flank position. We selected 110 mice bearing similar size tumors (˜100 mm^3) for the study. Mice bearing similar tumor size were randomly assigned into different groups. Treatment started on day 1 (7 days after tumor implantation) except as noted. TH-302 was administered intraperitoneally (IP) at 150 mg/kg, and docetaxel was administered intravenously (IV) at 10 mg/kg. Animals were observed daily and tumor measurements and body weights recorded twice weekly.
In a study conducted substantially as described above except the cells implanted were HT1080 human fibrosarcoma cells and 1×10^6 cells were implanted and mice were randomized into separate groups when their […]

HT29 colon cancer = assay: HT-29 ectopic tumor model, TH-302 with 5FU; assay type: in vivo, nude mice; settings: 5-FU 50 mg/kg IV Q3Dx4; TH-302 150 mg/kg IP Q7Dx3; alone or combined
H460 NSCLC cells = assay: H460 ectopic xenograft, TH-302/pemetrexed dosing schedules; assay type: in vivo, nude mice; settings: single agent, TH-302 100 mg/kg ip Q7Dx2 or PMX 150 mg/kg ip Q7Dx2
Procedure: as §3, §4
In a study conducted substantially as described above except the cells implanted were H460 NSCLC cells and 1×10^6 cells were implanted and mice were randomized into separate groups when their tumors reached ˜100 mm^3 and the chemotherapeutic employed was pemetrexed at a dose of 150 mg/kg given once a week (Q7D) for two weeks IP and the TH-302 was given at 100 mg/kg given once a week (Q7D) for two weeks IP. […]

H460 NSCLC [5] = assay: H460 ectopic lung cancer model, TH-302 with pemetrexed; assay type: in vivo, nude mice; settings: PMX 150 mg/kg 1/wkx2wks IP; TH-302 50 mg/kg 5/wkx2wks IP; alone or combined
Procedure: as §1, §2

[6] = single agent, Phase I study; cited from earlier work
[7] = system: orthotopic prostate cancer PC-3 cells; assay: Orthotopic PC-3 prostate cancer model, TH-302 with Taxol; assay type: in vivo, mice; settings: single agents: Taxol 12 mg/kg; TH-302 30 or 50 mg/kg
Procedure: TH-302 was tested as monotherapy and in combination with Taxol (paclitaxel) in animals bearing highly invasive and metastatic orthotopic prostate cancer PC-3 cells. Animals were randomized into 6 groups of 8 mice each and then treated either with vehicle; Taxol (12 mg/kg, IV, twice a week for 4 consecutive weeks); TH-302 (30 or 50 mg/kg, IP, once a day for 5 days a week for 2 consecutive weeks); or Taxol in combination with TH-302 (using the same single agent regimens).

With `N.N.O=C([O-])C1(C(=O)[O-])CCC1.[Pt+2]` [Carboplatin, carboplatin, reference compound] the “Days to 500 mm^3” value (H460 NSCLC [1]) was 11.5 days, the “Days to 1000 mm^3” value (H460 NSCLC [1]) was 18.5 days and the T/C (H460 NSCLC [1]) was 69.7%. For the same molecule, the “TGD500, Days (vs. vehicle)” value (H460 NSCLC [1]) was 2 days, the “TGD1000, Days (vs. vehicle)” value (H460 NSCLC [1]) was 4.5 days and the TGI (H460 NSCLC [1]) was 30.3%. For the same molecule, the “Tn (tumor volume on Day n)” value (H460 NSCLC [1]) was 855.6.
In the case of `CC(=O)O[C@@]12CO[C@@H]1C[C@H](O)[C@@]1(C)C(=O)[C@H](O)C3=C(C)[C@@H](OC(=O)[C@H](O)[C@@H](NC(=O)OC(C)(C)C)c4ccccc4)C[C@@](O)([C@@H](OC(=O)c4ccccc4)[C@H]21)C3(C)C` [Docetaxol, docetaxel, reference compound], the “Days to 500 mm^3” value [2] is reported as 18 days, the “Days to 1000 mm^3” value [2] is reported as 27 days and the T/C [2] is reported as 57.6%. For the same molecule, the “TGD500, Days (vs. vehicle)” value [2] was 5 days, the “TGD1000, Days (vs. vehicle)” value [2] was 7 days and the TGI [2] was 42.4%. The “Tn (tumor volume on Day n)” value ([2]; in mm³) was 681.36, the “Days to 500 mm^3” value [3] was 26 days and the T/C [3] was 49.1%. For the same molecule, the “TGD500, Days (vs. vehicle)” value [3] was 10 days, the TGI [3] was 50.9% and the “Tn (tumor volume on Day n)” value ([3]; in mm³) was 563.22.
In the case of `COc1cccc2c1C(=O)c1c(O)c3c(c(O)c1C2=O)C[C@@](O)(C(=O)CO)C[C@@H]3O[C@H]1C[C@H](N)[C@H](O)[C@H](C)O1` [Dox, doxorubicin, reference compound], the “Days to 500 mm^3” value (Calu6 NSCLC) is reported as 27 days, the “Days to 1000 mm^3” value (Calu6 NSCLC) is reported as 35 days and the T/C (Calu6 NSCLC) is reported as 67.7%. For the same molecule, the “TGD500, Days (vs. vehicle)” value (Calu6 NSCLC) was 9 days, the “TGD1000, Days (vs. vehicle)” value (Calu6 NSCLC) was 4 days and the TGI (Calu6 NSCLC) was 32.3%. For the same molecule, the “Tn (tumor volume on Day n)” value (Calu6 NSCLC) was 773.97, the “Days to 500 mm^3” value [4] was 24 days and the T/C [4] was 5.1%. For the same molecule, the “TGD500, Days (vs. vehicle)” value [4] was 12 days, the TGI [4] was 94.9% and the “Tn (tumor volume on Day n)” value [4] was 154.79.
With `O=c1[nH]cc(F)c(=O)[nH]1` [Formulation 5-FU, 5-fluorouracil, reference compound] the “Days to 500 mm^3” value (HT29 colon cancer) was 31 days, the “Days to 1000 mm^3” value (HT29 colon cancer) was 43 days and the T/C (HT29 colon cancer) was 43.1%. The “TGD500, Days (vs. vehicle)” value (HT29 colon cancer) was 9 days, the “TGD1000, Days (vs. vehicle)” value (HT29 colon cancer) was 11 days and the TGI (HT29 colon cancer) was 56.9%. For the same molecule, the “Tn (tumor volume on Day n)” value (HT29 colon cancer) was 514.11.
For `Nc1nc2[nH]cc(CCc3ccc(C(=O)N[C@@H](CCC(=O)O)C(=O)O)cc3)c2c(=O)[nH]1` [PMX, pemetrexed, reference compound], the “Days to 500 mm^3” value (H460 NSCLC cells) was 14 days, the “Days to 1000 mm^3” value (H460 NSCLC cells) was 24 days and the T/C (H460 NSCLC cells) was 72.4%. For the same molecule, the “TGD500, Days (vs. vehicle)” value (H460 NSCLC cells) was 2 days, the “TGD1000, Days (vs. vehicle)” value (H460 NSCLC cells) was 3 days and the TGI (H460 NSCLC cells) was 27.6%. For the same molecule, the “Tn (tumor volume on Day n)” value (H460 NSCLC cells) was 817.45, the “Days to 500 mm^3” value (H460 NSCLC [5]) was 19 days and the “Days to 1000 mm^3” value (H460 NSCLC [5]) was 29 days. For the same molecule, the T/C (H460 NSCLC [5]) was 70.2%, the “TGD500, Days (vs. vehicle)” value (H460 NSCLC [5]) was 5 days and the “TGD1000, Days (vs. vehicle)” value (H460 NSCLC [5]) was 5 days. The TGI (H460 NSCLC [5]) was 29.8% and the “Tn (tumor volume on Day n)” value (H460 NSCLC [5]) was 850.21.
In the case of `CS(=O)(=O)OCCN(CCBr)c1c(C(=O)NCCOP(=O)(O)O)cc([N+](=O)[O-])cc1[N+](=O)[O-]` [PR104], the “Maximum tolerated dose (MTD) and recommended dose” value [6] is given as 1,100 mg/m^2.
With `CC(=O)O[C@H]1C(=O)[C@@]2(C)[C@H]([C@H](OC(=O)c3ccccc3)[C@]3(O)C[C@H](OC(=O)[C@H](O)[C@@H](NC(=O)c4ccccc4)c4ccccc4)C(C)=C1C3(C)C)[C@]1(OC(C)=O)CO[C@@H]1C[C@@H]2O` [Taxol, paclitaxel, reference compound] the “Primary tumor growth during the treatment period” value [7] was “significantly inhibited primary tumor growth”.
